This is an account of results in US20260060982A1, “USE OF BTK INHIBITOR AND SINGLE-DOSE DRUG” (HUBEI BIO-PHARMACEUTICAL INDUSTRIAL TECHNOLOGICAL INSTITUTE …, priority 2023, published 2026).

The subject of data set [1] is IgM-induced calcium signaling in RAMOS cells. The experiment in a line: Antagonism of IgM-induced calcium signaling in RAMOS cells (FLIPR). It is filed as cell-based. The settings on record: Homo sapiens, Fluo-4D dye. How it is done: The specific test steps were as follows:
A. Ramos cells (ECACC) were seeded in a 384 experimental plate using cell culture medium (RPMI 1640 medium supplemented with 10% fetal bovine serum) at a density of 5×10^6 cells/mL, 20 μL per well.
C. The cell plate and the compound plate were placed into FLIPR. 10 μL was transferred from the compound plate by the FLIPR instrument and added to the cell plate. The cell plate was removed and incubated in a 37° C. incubator for 1 h.
D. One hour later, 40 μL of Fluo-4D dye (Life Technologies, formulated as 0.5× with 40 mL of HBSS and HEPES buffer) was added to the cell plate and incubated at 37° C. for 50 min.
E. 10 μL of IgM at 8×EC80 concentration was added, and the plate was read using FLIPR.
F. The IC50 results of the compounds were analyzed using EXCEL and Prism statistical software.

The target in the next data set is BTK (Homo sapiens, UniProt Q06187). The experiment in a line: BTK target occupancy in peripheral blood mononuclear cells (ELISA), Phase I single-dose trial. The class given is in vivo. Set-up: endogenous in cells; host or cells: human peripheral blood mononuclear cells (PBMCs) of trial subjects, lysate. The procedure:
The receptor occupancy of compound (I) in human peripheral blood mononuclear cell lysate was detected by ELISA. The analysis method was to perform relative quantitative determination of BTK in human peripheral blood mononuclear cells (PBMCs) using ELISA.
PBMC lysate containing BTK was incubated with compound (I), with a control containing no compound (I), then incubated with biotinlated compound (I), and then added to a well plate pre-coated with streptavidin. When compound (I) was incubated with PBMC lysate, it was bound to BTK, thereby preventing BTK from binding to biotinylated compound (I). Since the complex cannot bind to the well plate, it was difficult to generate a response signal.
Rabbit anti-BTK primary antibody incubated with the above samples would bind to BTK. Tetramethylbenzidine (TMB) was the substrate of HRP coupled to the anti-rabbit secondary antibody. […] After color development, the absorbance was measured at a wavelength of 450 nm. […] The content of free BTK was proportional to the absorbance. In this way, the content of BTK can be indirectly detected. […]
The analysis was performed using the Per-protocol set. The differences in BTK target occupancy rate among the different dose groups was analyzed using the Chi-Square test; and the relationship between dose, plasma concentration, and BTK target occupancy rate was analyzed using Logistic Regression.

The nature of data set [2]: Phase I single-dose clinical trial, pharmacokinetics. The class given is in vivo. The settings on record: human, plasma, oral, single administration, 10 mg to 800 mg. An excerpt:
(§1) In this example, 96 healthy Chinese aged 18 to 45 were recruited as subjects. The trial included 8 dose groups, each with 12 subjects, who were randomly divided into groups, 10 of whom received compound (I) capsules (i.e., the trial group) and 2 received placebo capsules (containing no compound (I), i.e., the control group or placebo group). […] The dosages involved in this example were all the amount of compound (I). Based on safety and exploration factors, the human MRSD (maximum recommended starting dose) of compound (I) capsule used in the example was set at 10 mg, and the human maximum recommended dose was set at 800 mg. A total of 8 dose groups were set up between the initial dose and the maximum dose (see Table 2 for the dose escalation scheme of the clinical trial): 10 mg, 25 mg, 50 mg, 100 mg, 200 mg, 400 mg, 600 mg, and 800 mg, and single administration safety and tolerability trials were conducted group by group.
(§2) The subjects fasted for 10 h before administration and took a single oral administration of compound (I) capsule or placebo capsule at the prescribed dose on the morning of the trial day. Water was prohibited within 2 h after the administration and food was prohibited within 4 h after the administration. Blood sample collection: 3.0 ml of venous blood was collected before administration (within 45 min) and at 10 min, 20 min, 0.5 h, 1 h, 1.5 h, 1.75 h, 2 h, 2.5 h, 3 h, 3.5 h, 4 h, 6 h, 8 h, 12 h, 16 h, 24 h, 36 h, 48 h, and 72 h after administration. Urine sample collection: Urine samples were collected before administration (within 2 h) and at 0-2 h, 2-4 h, 4-8 h, 8-12 h, 12-16 h, 16-24 h, 24-48 h, and 48-72 h after administration. Feces collection: Feces were collected before administration (within 3 days) and at 0-24 h, 24-48 h, and 48-72 h after administration.
The analysis was performed using the Per-protocol set. The time-dependent plasma concentration data of compound (I) capsules were processed using WinNonlin version 6.4. The main pharmacokinetic parameters of each subject were calculated using a non-compartmental model, and the linear relationship between dose and Cmax and AUC0-t was analyzed using a power function model.

Data set [3] in a line: Phase I single-dose clinical trial, safety and tolerability. It is filed as in vivo, human. To be noted: compound (I) group, all doses (n = 80).
Text: as §1, §2
Safety data set: including all subjects who received at least one administration and had post-administration safety data. […]

BTK, sequence (Q06187 whole entry): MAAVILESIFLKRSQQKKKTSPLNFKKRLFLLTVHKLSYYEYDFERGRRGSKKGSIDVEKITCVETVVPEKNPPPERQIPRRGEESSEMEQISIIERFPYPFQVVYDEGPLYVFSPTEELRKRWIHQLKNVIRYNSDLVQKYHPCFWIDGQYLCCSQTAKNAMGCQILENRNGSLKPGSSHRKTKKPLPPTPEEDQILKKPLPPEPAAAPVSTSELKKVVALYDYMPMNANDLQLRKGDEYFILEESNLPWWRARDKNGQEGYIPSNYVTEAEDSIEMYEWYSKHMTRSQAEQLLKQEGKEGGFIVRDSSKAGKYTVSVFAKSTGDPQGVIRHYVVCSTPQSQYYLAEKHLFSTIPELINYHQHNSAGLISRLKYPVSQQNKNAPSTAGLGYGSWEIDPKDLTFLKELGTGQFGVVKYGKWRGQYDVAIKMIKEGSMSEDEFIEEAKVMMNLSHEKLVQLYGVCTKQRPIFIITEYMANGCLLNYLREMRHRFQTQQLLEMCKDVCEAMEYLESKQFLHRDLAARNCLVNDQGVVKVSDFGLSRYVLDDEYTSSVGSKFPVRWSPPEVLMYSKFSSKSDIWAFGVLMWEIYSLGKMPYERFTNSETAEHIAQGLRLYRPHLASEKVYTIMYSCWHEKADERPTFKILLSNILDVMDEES

In general, IC50 refers to the concentration at which inhibition is half-maximal. What is called Cmax is the maximum level reached in the sampled fluid or tissue. As a reminder, the MRT is a mean duration of stay, worked out from the concentration-time curve. As a reminder, the Tmax is the time from dosing to the highest level. As to `C=CC(=O)N1CCC[C@@H](n2nc(-c3ccc(Oc4ccccn4)cc3)c3c(N)n[nH]c(=O)c32)C1` [compound (I), (R)-1-(1-acryloylpiperidin-3-yl)-4-amino-3-(4-(pyridin-2-yloxy)phenyl)-1H-pyrazolo[3,4-d]pyridazin-7(6H)-one], the IC50 in data set [1] amounted to 55 ± 3.34 nM. For the same compound, the “maximum BTK target occupancy rate” value at BTK (single administration of 10 mg) came out at 58.93%. For the same compound, the “maximum BTK target occupancy rate” value on BTK (single administration of 25 mg or above) is recorded as approximately 100%. Also, the highest concentration (Cmax) in data set [2] (read-out: Cmax, range over dose groups) was 46.1 to 5060 ng/mL. Further, the MRT in data set [2] (read-out: MRT, range over dose groups) is 1.53 to 4.25 h. For the same compound, in data set [2] (read-out: T1/2, range over dose groups), the half-life was in the range of 0.847 to 8.67 h. The Tmax in data set [2] (read-out: Tmax, range over dose groups) was 1.03 to 2 h. In data set [3], the “subjects with TEAEs” value was 25; the “subjects with TEAEs, share” value amounted to 31.3%; the “treatment-emergent adverse events (TEAE), number of events” value was found to be 35.
